In ChEMBL document CHEMBL1201862, “PubChem BioAssay data set” (2004):
Active and inactive are the calls of the source.

How the values were obtained:
Cytochrome P450 3A4 = Cytochrome P450 3A4 (Homo sapiens, UniProt P08684);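 further: CYP3A4 tested as one member of a cytochrome P450 panel screen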
Cytochrome P450 2C19 = Cytochrome P450 2C19 (Homo sapiens, UniProt P33261); assay: Cytochrome panel assay with activity outcomes. Panel member name: p450-cyp2c19 Compounds with AC50 equal or less than 10 uM are considered active; assay type: functional
Cytochrome P450 2C9 = Cytochrome P450 2C9 (Homo sapiens, UniProt P11712)
[1] = alpha-synuclein stem-loop luciferase translation blockers – H4 neuroglioma cells, luminescence, confirmation (AID 1988); assay type: functional, cell-based
[2] = luciferase reporter signal suppression in cells – H4 neuroglioma cells, luminescence, dose response (AID 1990); assay type: functional, cell-based
[3] = Luminescence Cell-Based Dose Response HTS to Identify Inhibitors of 5'UTR Stem-Loop Driven Prion Protein mRNA Translation in H4 Neuroglioblastoma Cells. [Related pubchem assays: 1827 (Project Summary), 1813 (Primary HTS)]; assay type: functional
Cytochrome P450 1A2 = molecular target: T1, Cytochrome P450 1A2 (Homo sapiens, UniProt P05177);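 further: PubChem cytochrome P450 panel assay, CYP1A2 panel member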
T1 sequence (P05177 whole entry): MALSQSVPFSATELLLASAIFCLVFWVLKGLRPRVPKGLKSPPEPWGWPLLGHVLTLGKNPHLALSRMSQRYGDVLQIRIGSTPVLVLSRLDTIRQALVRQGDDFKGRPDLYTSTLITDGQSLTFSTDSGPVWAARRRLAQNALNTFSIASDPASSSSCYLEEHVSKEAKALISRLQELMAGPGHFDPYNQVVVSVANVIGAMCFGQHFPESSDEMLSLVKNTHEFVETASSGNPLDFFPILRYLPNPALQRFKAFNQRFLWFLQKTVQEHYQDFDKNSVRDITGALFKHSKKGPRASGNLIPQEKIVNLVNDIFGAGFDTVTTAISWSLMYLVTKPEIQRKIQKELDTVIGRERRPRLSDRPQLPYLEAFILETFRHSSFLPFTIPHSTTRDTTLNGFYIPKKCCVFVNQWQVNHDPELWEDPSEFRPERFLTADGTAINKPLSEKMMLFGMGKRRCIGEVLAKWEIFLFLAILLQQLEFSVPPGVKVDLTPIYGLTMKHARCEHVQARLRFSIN

Cytochrome P450 2D6 = Cytochrome P450 2D6 (Homo sapiens, UniProt P10635);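 further: CYP2D6 member of a cytochrome P450 panel assay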
[4] = molecular target: T2, Rac GTPase-activating protein 1 (Homo sapiens, UniProt Q9H0H5); assay: blockers of MgcRacGAP-driven Rac1 GTP hydrolysis – biochemical, ADP Hunter fluorescence, primary and confirmatory, confirmation (AID 624330); assay type: functional
T2 sequence (Q9H0H5 whole entry): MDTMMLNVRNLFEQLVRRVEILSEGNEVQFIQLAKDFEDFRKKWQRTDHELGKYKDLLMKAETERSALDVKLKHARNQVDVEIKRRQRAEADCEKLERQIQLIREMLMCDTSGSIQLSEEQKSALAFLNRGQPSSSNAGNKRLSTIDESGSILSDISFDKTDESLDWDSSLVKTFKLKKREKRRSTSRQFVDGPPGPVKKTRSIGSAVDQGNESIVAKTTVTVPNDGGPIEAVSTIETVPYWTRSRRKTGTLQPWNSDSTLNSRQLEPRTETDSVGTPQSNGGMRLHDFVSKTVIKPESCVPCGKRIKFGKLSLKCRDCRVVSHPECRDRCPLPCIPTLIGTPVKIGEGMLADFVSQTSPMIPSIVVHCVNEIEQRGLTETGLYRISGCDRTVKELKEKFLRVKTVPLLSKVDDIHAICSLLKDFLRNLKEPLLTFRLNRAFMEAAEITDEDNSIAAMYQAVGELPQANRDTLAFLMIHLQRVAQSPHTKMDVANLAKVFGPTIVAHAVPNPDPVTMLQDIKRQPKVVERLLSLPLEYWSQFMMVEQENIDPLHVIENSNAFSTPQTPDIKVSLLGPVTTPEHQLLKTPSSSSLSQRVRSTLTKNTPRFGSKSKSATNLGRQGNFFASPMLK

Sequence of Cytochrome P450 3A4 (P08684 whole entry): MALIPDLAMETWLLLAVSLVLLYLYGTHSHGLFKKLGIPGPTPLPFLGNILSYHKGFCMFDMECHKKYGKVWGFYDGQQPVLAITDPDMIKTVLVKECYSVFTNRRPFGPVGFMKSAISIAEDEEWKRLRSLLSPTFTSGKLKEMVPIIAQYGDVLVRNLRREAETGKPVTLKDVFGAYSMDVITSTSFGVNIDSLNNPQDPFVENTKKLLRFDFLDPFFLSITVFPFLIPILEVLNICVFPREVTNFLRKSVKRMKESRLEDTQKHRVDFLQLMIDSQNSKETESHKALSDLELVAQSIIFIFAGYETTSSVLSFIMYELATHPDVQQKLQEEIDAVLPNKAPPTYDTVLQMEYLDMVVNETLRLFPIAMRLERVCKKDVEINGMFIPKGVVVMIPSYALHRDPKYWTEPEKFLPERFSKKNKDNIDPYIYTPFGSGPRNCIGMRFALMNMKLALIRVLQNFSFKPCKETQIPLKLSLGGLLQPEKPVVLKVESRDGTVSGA
Sequence of Cytochrome P450 2D6 (P10635 whole entry): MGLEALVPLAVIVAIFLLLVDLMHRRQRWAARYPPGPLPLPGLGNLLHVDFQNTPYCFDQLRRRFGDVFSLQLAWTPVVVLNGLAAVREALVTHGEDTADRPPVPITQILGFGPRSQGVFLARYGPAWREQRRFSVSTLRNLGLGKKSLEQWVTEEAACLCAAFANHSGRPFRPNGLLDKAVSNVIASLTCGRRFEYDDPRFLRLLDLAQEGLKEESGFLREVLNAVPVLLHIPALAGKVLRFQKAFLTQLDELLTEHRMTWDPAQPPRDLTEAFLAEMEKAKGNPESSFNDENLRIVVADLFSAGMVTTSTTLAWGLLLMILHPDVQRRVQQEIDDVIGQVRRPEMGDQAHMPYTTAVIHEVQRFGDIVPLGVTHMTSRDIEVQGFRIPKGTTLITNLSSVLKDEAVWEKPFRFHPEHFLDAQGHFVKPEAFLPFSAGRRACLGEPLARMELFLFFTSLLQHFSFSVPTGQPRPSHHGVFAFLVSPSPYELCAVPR
Sequence of Cytochrome P450 2C19 (P33261 whole entry): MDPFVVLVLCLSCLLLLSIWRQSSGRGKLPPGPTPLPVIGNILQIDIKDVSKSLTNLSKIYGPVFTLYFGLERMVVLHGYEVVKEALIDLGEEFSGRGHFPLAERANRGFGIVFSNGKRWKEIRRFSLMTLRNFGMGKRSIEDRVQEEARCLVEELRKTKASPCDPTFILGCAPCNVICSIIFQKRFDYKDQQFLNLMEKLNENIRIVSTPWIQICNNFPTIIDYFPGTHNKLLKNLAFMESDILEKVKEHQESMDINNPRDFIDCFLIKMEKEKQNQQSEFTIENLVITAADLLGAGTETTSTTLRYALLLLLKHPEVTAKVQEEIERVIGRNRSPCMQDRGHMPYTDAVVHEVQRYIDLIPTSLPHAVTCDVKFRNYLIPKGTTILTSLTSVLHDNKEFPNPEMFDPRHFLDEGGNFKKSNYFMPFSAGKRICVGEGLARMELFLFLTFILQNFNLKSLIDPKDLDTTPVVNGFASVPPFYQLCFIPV
Sequence of Cytochrome P450 2C9 (P11712 whole entry): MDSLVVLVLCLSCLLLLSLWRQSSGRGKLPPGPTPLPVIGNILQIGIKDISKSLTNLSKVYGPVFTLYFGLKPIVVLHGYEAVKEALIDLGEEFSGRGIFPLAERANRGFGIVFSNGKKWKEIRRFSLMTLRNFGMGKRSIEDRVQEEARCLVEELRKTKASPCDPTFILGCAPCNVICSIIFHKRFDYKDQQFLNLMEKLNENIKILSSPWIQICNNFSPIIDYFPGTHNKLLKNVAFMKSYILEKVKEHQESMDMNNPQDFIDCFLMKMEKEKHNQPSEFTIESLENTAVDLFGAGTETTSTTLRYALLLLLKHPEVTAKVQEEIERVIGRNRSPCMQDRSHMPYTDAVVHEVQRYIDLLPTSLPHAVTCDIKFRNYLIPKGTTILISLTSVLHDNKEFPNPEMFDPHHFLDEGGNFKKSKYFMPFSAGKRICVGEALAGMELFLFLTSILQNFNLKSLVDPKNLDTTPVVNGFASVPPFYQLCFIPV

Compound | AC50 (Cytochrome P450 3A4) | AC50 (Cytochrome P450 2C9) | AC50 (Cytochrome P450 1A2) | other results
Cc1cnn(-c2ccc3nnc(-c4ccc(Cl)cc4)n3n2)c1 | 1.12 µM (inconclusive) | 6.31 µM (inconclusive) | – | AC50 (Cytochrome P450 2C19; read-out: AC50): 1.41 µM (inconclusive)
CCCC(=O)Nc1nnc(Cc2ccccc2)s1 | 15.8 µM (inconclusive) | 10 µM (inconclusive) | – | –
CC1=CC2=NC(=O)CC(C)(C(=O)N(CC(=O)NC(C)(C)C)Cc3cccs3)N2C=C1 (stereo not drawn) | – | 25.1 µM (inconclusive) | – | –
O=[N+]([O-])c1cc([N+](=O)[O-])c(Oc2cccc(Cl)c2Cl)cc1NN1CCCCC1 | – | – | – | EC50 [1]: 58.3 µM (active); EC50 [2]: 11.8 µM (active); EC50 [3]: > 120 µM (not active)
CN(C)c1ncc2nc(-c3ccccc3)c(=O)n(-c3ccccc3)c2n1 | – | – | 0.398 µM (inconclusive) | –
COCCn1c(=O)cnc2cnc(Oc3ccccc3)nc21 | 25.1 µM (inconclusive) | – | – | –
O=C(Nc1ccccc1)N1CCCC2(CCN(C(=O)c3cc(C(F)(F)F)cc(C(F)(F)F)c3)CC2)C1 | – | – | 31.6 µM (inconclusive) | –
C=C(CC1([C@@H](NP(=O)(c2ccccc2)c2ccccc2)[C@H]2C[C@@H]2CCCC)CC1)c1cccc(OC)c1 | – | 39.8 µM (inconclusive) | 12.6 µM (inconclusive) | AC50 (Cytochrome P450 2D6): 39.8 µM (inconclusive); AC50 (Cytochrome P450 2C19; read-out: AC50): 15.8 µM (inconclusive)
COc1ccc(O[C@H]2C=C[C@@H](c3ccccc3)O[C@@H]2CO/N=C(\C)CCN2CCCCc3nc(C)c(C)cc32)cc1 | – | 6.31 µM (inconclusive) | – | –
CC1CCN(c2ccc(NC(=S)NC(=O)c3ccco3)cc2)CC1 | 17.8 µM (inconclusive) | 1.41 µM (inconclusive) | 28.2 µM (inconclusive) | AC50 (Cytochrome P450 2C19; read-out: AC50): 3.98 µM (inconclusive)
Cc1cccc(NC(S)=NNC(=O)CCn2cc(C)cn2)c1 | – | – | 25.1 µM (inconclusive) | AC50 (Cytochrome P450 2C19): inconclusive
COC(=O)/C=C/c1ccccc1S(=O)(=O)N(Cc1ccccc1)Cc1ccco1 | – | – | – | EC50 [1]: 5.96 µM (active); EC50 [2]: 8.38 µM (inconclusive); EC50 [3]: 9.84 µM (active)
CN(C)S(=O)(=O)c1ccc(Nc2ccc(O)c3c2C(=O)c2c([N+](=O)[O-])ccc(O)c2C3=O)cc1 | 3.98 µM (inconclusive) | 3.16 µM (inconclusive) | – | AC50 (Cytochrome P450 2D6): 0.794 µM (inconclusive)
COCCNC(=O)[C@H](C)[C@@H]1C[C@@]1(C)[C@@H](NC(=O)OCc1ccccc1)c1ccccc1 | – | 31.6 µM (inconclusive) | – | –
Cc1ccc(S(=O)(=O)c2cc(N3CCOCC3)nc(-c3ccccc3)n2)cc1 | – | 11.2 µM (inconclusive) | – | –
COc1cc(-c2c(C#N)c(N)nc3c2CCCC3)cc(OC)c1OC | – | – | – | EC50 [1]: 19.7 µM (active); EC50 [2]: 27.4 µM (active); EC50 [3]: 17.1 µM (active)
COc1ccccc1CN1CCCC2(CCN(C(C)=O)CC2)C1 | – | – | 25.1 µM (inconclusive) | –
CC(=O)Nc1ccc2c(c1)/C(=C/c1ccc([N+](C)(C)C)cc1)c1ccccc1-2 | – | 3.16 µM (inconclusive) | 1.58 µM (inconclusive) | –
O=C1N[C@@]2(CN3CCC2CC3)C(=O)N1CN(Cc1ccccc1)c1ccccc1 | – | – | 0.398 µM (inconclusive) | AC50 (Cytochrome P450 2C19; read-out: AC50): 1.58 µM (inconclusive)
COc1ccc(C)cc1NC(=O)CN1CCN(S(=O)(=O)c2ccc(F)cc2)CC1 | – | – | 0.0398 µM (inconclusive) | –
O=C(Nc1ccc(Oc2ncnc3cc(Cl)ccc23)nc1)c1cccs1 | – | – | – | EC50 [1]: > 120 µM (not active); EC50 [2]: > 120 µM (not active); EC50 [3]: > 120 µM (not active)
Cc1cnc(CNc2ncncc2-c2ccccc2C(F)(F)F)cn1 | 0.2 µM (inconclusive) | – | – | AC50 (Cytochrome P450 2C19; read-out: AC50): 39.8 µM (inconclusive)
Cc1ccc(C(=O)NC(=S)Nc2ccc(S(=O)(=O)N3CCN(C)CC3)cc2)cc1 | 0.891 µM (inconclusive) | – | 12.6 µM (inconclusive) | –
O=c1c2ccc([N+](=O)[O-])c3cccc(c32)c2nc3ccccc3n12 | – | – | – | EC50 [1]: < 0.1 µM (active); EC50 [2]: < 0.1 µM (active); EC50 [3]: < 0.1 µM (active)
Cc1ccccc1CN1CCN(C(=O)c2cccc3ccccc23)CC1 | – | – | – | IC50 [4]: 215 µM (active)

Compound | AC50 (Cytochrome P450 3A4) | AC50 (Cytochrome P450 2C9) | AC50 (Cytochrome P450 1A2) | other results
COCCNC(=S)Nc1cc(OC)c(OC)cc1C#N | – | – | – | IC50 [4]: 204 µM (active)
N#CC(C#N)=NNc1ccc2cn[nH]c2c1 | 1.58 µM (inconclusive) | – | – | AC50 (Cytochrome P450 2C19; read-out: AC50): 3.16 µM (inconclusive)
COc1ccc2cc3cc(C(=O)NCc4ccccn4)oc3nc2c1 | 39.8 µM (inconclusive) | – | – | AC50 (Cytochrome P450 2D6): 39.8 µM (inconclusive)
Cc1cc(=O)oc(C)c1C(=O)Nc1ccc(Cl)cn1 | – | 20 µM (inconclusive) | – | AC50 (Cytochrome P450 2C19; read-out: AC50): 2.24 µM (inconclusive)
O=C(NCc1ccc(F)cc1)C(c1ccncc1)N(C(=O)c1csnn1)C1CC1 (stereo not drawn) | – | 8.91 µM (inconclusive) | – | AC50 (Cytochrome P450 2D6): 11.2 µM (inconclusive)
O=C(Nc1ccc(F)cc1Cl)c1ccc2c(=O)n3c(nc2c1)CCCCC3 | 4.47 µM (inconclusive) | – | – | AC50 (Cytochrome P450 2C19; read-out: AC50): 3.98 µM (inconclusive)
O=C(c1cccc(F)c1)N1CCC2(CCN(Cc3ccncc3)CC2)CC1 | 15.8 µM (inconclusive) | – | 12.6 µM (inconclusive) | AC50 (Cytochrome P450 2D6): 12.6 µM (inconclusive); AC50 (Cytochrome P450 2C19; read-out: AC50): 25.1 µM (inconclusive)
O=c1c(-c2ccccc2)c(O)c2cccc3c2n1CCC3 | – | – | 11.2 µM (inconclusive) | –
Cc1cc(SC(C)C(=O)NCC(=O)Nc2ccc(F)c(F)c2F)nc2ccccc12 (stereo not drawn) | – | – | – | EC50 [1]: 18 µM (active); EC50 [2]: > 120 µM (not active); EC50 [3]: 92 µM (active)
COc1cc(/C=C/C(=O)OCC(=O)N2CCN(C(=O)c3ccco3)CC2)ccc1O | – | – | – | IC50 [4]: 44.8 µM (active)
CC(=O)[C@H](C(=N)C#N)C(=O)Nc1ccccc1 | – | – | 6.31 µM (inconclusive) | AC50 (Cytochrome P450 2C19): inconclusive
COC(=O)c1nn(C23CC4CC(CC(C4)C2)C3)c2c1C(=O)N(c1ccc(F)cc1)C2=O | – | 12.6 µM (inconclusive) | – | AC50 (Cytochrome P450 2C19; read-out: AC50): 39.8 µM (inconclusive)
Cc1nnc(-c2cccc(Br)c2)c2cn(-c3ccccc3Cl)nc12 | 39.8 µM (inconclusive) | – | – | AC50 (Cytochrome P450 2D6): 28.2 µM (inconclusive)
COCC(=O)N1CCC2(CCCN(C(=O)Nc3ccc(OC)cc3)C2)CC1 | 39.8 µM (inconclusive) | – | – | AC50 (Cytochrome P450 2C19): inconclusive
O=C(Nc1ccc(-n2nncc2-c2ccco2)cc1)c1ccc(F)cc1 | – | 11.2 µM (inconclusive) | – | –
CSc1nc(NCc2ccco2)c2sc3nc(C(C)C)c4c(c3c2n1)CC(C)(C)OC4 | – | – | – | EC50 [1]: > 120 µM (not active); EC50 [2]: 27.5 µM (active); EC50 [3]: > 120 µM (not active)
O=C(O)c1ccc(Oc2nc3ccccc3s2)cc1 | – | – | 3.16 µM (inconclusive) | –
O=c1c(-c2cccs2)nc2cnc(N3CCOCC3)nc2n1Cc1cccs1 | 10 µM (inconclusive) | – | 15.8 µM (inconclusive) | –
Cn1c(=O)c2c(-c3cccc(F)c3)c3c(nc2n(C)c1=O)-c1ccccc1C3O (stereo not drawn) | 22.4 µM (inconclusive) | 2.82 µM (inconclusive) | – | AC50 (Cytochrome P450 2D6): 79.4 µM (inconclusive)
CCCCNC(=O)CN1C(=O)NC2(CCCc3ccccc32)C1=O (stereo not drawn) | – | – | 25.1 µM (inconclusive) | AC50 (Cytochrome P450 2C19; read-out: AC50): 31.6 µM (inconclusive)
COc1ccc(-c2c[nH]nc2-c2ccc(O)cc2O)cc1OC | – | – | – | IC50 [4]: 60.2 µM (active)
Cc1c(N2C(=O)CS/C2=N\N=C\c2ccc(Cl)cc2)c(=O)n(-c2ccccc2)n1C | 28.2 µM (inconclusive) | 31.6 µM (inconclusive) | – | AC50 (Cytochrome P450 2C19; read-out: AC50): 39.8 µM (inconclusive)
CCCC1S/C(=N/N=C/c2ccc(OC)cc2)N(Cc2ccc(OC)cc2)C1=O (stereo not drawn) | 1 µM (inconclusive) | – | – | –
Oc1ccc(/N=C(\S)Nc2ccc(O)cc2)cc1 | – | – | – | IC50 [4]: 41.7 µM (active)
COC(=O)C1=C(C)NC(C)=C(C(=O)OC(C)C)C1c1cccc2nonc12 (stereo not drawn) [ISRADIPINE] | – | – | 31.6 µM (inconclusive) | –
